Data as given in PMC10683472, “Deep Learning-Driven Library Design for the De Novo Discovery of Bioactive Thiopeptides” (ACS Central Science, 2023).
*1 amine or outer side, *2 acyl side, *3 side chain or, on linkers, in order; H or OH if unused. Where a SMILES comes first, the peptide text is derived from it. Where no end group is shown, it is not given here. [ ]: non-standard residue; d: D form. hGln = L-homoglutamine, NC(=O)CCC[C@H](N[*:1])C(=O)[*:2]; pyridine‑bisazole = not defined here; Nle = CCCC[C@H](N)C(=O)O; Dha = C=C(N)C(=O)O

Legend:
[1] = biological target: T1, Human TLR10 Fc Chimera protein (extracellular domain) (Homo sapiens, UniProt Q9BXR5); test: Surface plasmon resonance binding to TLR10; conditions: SPR
T1 construct: Chimera protein (extracellular domain, amino acid 20-576;); Fc (chimera); purchased R&D system #6619-TR-050
T1 sequence (Q9BXR5 20-576): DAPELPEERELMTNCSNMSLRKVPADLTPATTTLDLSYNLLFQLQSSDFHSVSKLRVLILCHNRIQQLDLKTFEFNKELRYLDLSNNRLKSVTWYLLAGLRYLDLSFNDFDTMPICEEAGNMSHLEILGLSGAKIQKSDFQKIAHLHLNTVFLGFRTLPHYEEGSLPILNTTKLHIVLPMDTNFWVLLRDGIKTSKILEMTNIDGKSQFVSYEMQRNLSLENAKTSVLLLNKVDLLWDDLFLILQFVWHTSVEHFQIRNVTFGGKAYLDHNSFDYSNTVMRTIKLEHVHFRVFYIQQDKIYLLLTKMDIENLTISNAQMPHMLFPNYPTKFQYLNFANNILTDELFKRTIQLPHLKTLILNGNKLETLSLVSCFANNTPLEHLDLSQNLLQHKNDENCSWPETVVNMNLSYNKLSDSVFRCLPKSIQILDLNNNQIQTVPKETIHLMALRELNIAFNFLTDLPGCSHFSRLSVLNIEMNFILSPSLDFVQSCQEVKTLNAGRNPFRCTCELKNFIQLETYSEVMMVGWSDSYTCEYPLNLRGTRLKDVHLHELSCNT
Description: Reagents were purchased from Nacalai Tesque, Wako Pure Chemical Industries, Sigma-Aldrich Japan, or TCI Chemicals and were used as received. […]
Anti-HA magnetic beads were from Pierce Thermo […]
2000c spectrophotometer (Thermo Scientific) equipped with a 5 mm pathlength quartz cuvette using extinction coefficient values calculated with ExPASy ProtParam tool (https://web.expasy.org/protparam). […]
Biochemical measurements (sections 2.10 – 2.14) were performed in triplicate or more. Most […]
determination of biophysical parameters involved cell assay (CP50 and IC50), reported are standard errors of the fit; otherwise, error bars are standard deviations. […]

Serum stability assay = type: in vitro ADME; conditions: human serum, 37 °C, LC/MS; for half-life at 10 µM: pH 7.6, read-out: serum stability τ1/2 (converted)
Description: Next, we tested the metabolic stability of the discovered thiopeptides. The compounds were incubated in human serum at 37 °C in the presence of an internal control, and the amounts of the remaining analytes were quantified by LC/MS (Figures S27 and 28). […] At the other extreme, IR11 rapidly degraded in human serum with τ1/2 = 0.5 h. […]
Kinetic parameters and affinities of the […]
2.12. Thiopeptide metabolic stability experiments
The mixtures were stirred
well and transferred to a 37 °C thermostat. […]

TLR10 [2] = biological target: T2, TLR10 (Homo sapiens, UniProt Q9BXR5); test: Single-round mRNA display binding assay (qPCR), TLR10; conditions: ratio of cDNA recoveries (qPCR), TLR10 pulldown over beads only, single-round selection
T2 sequence (Q9BXR5 20-576): T1 sequence (Q9BXR5 20-576)

TLR10 [3] = biological target: T2, TLR10; test: mRNA display affinity selection against TLR10, NGS abundance; type: binding; parameters: Chimera protein (extracellular domain, amino acid 20-576;); Fc (chimera); purchased R&D system #6619-TR-050; conditions: TLR10 selection, NGS abundance rank
[4] = biological target: T3, toll-like receptor 10, extracellular domain (UniProt Q9BXR5 20-576); test: SPR; surface plasmon resonance of synthetic thiopeptides on their target protein; conditions in S.I. 2.10 (not shown); conditions: both partners purified
T3 construct: toll-like receptor 10 (TLR10), extracellular domain; also called TLR10; TLR10 cell surface receptor
T3 sequence (looked up): T1 sequence (Q9BXR5 20-576)

Q: For `C=C1NC(=O)[C@H](CCCCN)NC(=O)[C@H]([C@@H](C)CC)NC(=O)[C@H](CCCC)NC(=O)[C@H](C(C)C)NC(=O)[C@H](CCCNC(=N)N)NC(=O)CNC(=O)[C@H]([C@@H](C)CC)NC(=O)[C@H](Cc2c[nH]c3ccccc23)NC(=O)c2ccc(-c3nc(C(=O)OC)cs3)nc2-c2csc(n2)C(=C)NC(=O)c2coc1n2` [TL19] (HELM PEPTIDE1{W.I.G.R.V.[Nle].I.K.[C=C(N[*:1])c1nc(C(=O)[*:2])co1]}|CHEM1{[C=C(N[*:2])c1nc(-c2nc(-c3nc(C(=O)OC)cs3)ccc2C(=O)[*:1])cs1]}$PEPTIDE1,CHEM1,1:R1-1:R1|PEPTIDE1,CHEM1,9:R2-1:R2$$$V2.0; bridges inferred), which koff [1] is on record?
A: Its koff is 0.0032 s⁻¹.

Q: And the kon [1]?
A: Its kon is 5540 M⁻¹ s⁻¹.

Q: What about the half-life at 10 µM (Serum stability assay) of the same molecule?
A: The half-life at 10 µM was 7.4 ± 1.5 h.

Q: What about the “display P/N ratio” value (TLR10 [2]) of the same molecule?
A: The value was 263.

Q: And the “rank in pulldown(–)” value (TLR10 [3])?
A: The value was 22.

Q: And the “rank in pulldown(+)” value (TLR10 [3]; –: not found in the final pulldown(+) libraries at the sequenced depth)?
A: Its value is 16.

Q: What does the source list for `C=C1NC(=O)[C@H](Cc2c[nH]cn2)NC(=O)[C@H]([C@@H](C)CC)NC(=O)[C@H](C(C)C)NC(=O)[C@H](C(C)C)NC(=O)[C@H](CC(N)=O)NC(=O)[C@H](C(C)C)NC(=O)[C@H](CCCNC(=N)N)NC(=O)[C@H](CO)NC(=O)[C@H](CC(C)C)NC(=O)[C@H](CCC(=O)O)NC(=O)[C@H](CC(C)C)NC(=O)[C@H](CO)NC(=O)[C@H](Cc2c[nH]c3ccccc23)NC(=O)c2ccc(-c3nc(C(=O)OC)cs3)nc2-c2csc1n2` [TL20] (HELM PEPTIDE1{W.S.L.E.L.S.R.V.N.V.V.I.H}|CHEM1{[C=C(N[*:2])c1nc(-c2nc(-c3nc(C(=O)OC)cs3)ccc2C(=O)[*:1])cs1]}$PEPTIDE1,CHEM1,1:R1-1:R1|PEPTIDE1,CHEM1,13:R2-1:R2$$$V2.0; bridges inferred)?
A: koff [1]: 0.0078 s⁻¹; kon [1]: 25500 M⁻¹ s⁻¹; serum stability τ1/2 (Serum stability assay): 38 h; half-life at 10 µM (Serum stability assay): 38.2 ± 6 h; display P/N ratio (TLR10 [2]): 286; rank in pulldown(–) (TLR10 [3]): 52

B1: thiopeptide TL3 (synthetic) (peptide)
chain: SW[hGln]ISFWLQRKVAFSCSC
modifications: bridge (positions not given here) via pyridine‑bisazole; reading uncertain; also: macrocycle closed through a pyridine-bisazole moiety, oxazole to thiazole change
Q: With B1 as the molecule, how does the Kd [4] read?
A: Its Kd is 890 nM.

B2: thiopeptide TL4 (synthetic) (peptide)
chain: SWTIRFTNQNKIAFSCSC
modifications: bridge (positions not given here) via pyridine‑bisazole; reading uncertain; also: macrocycle closed through pyridine-bisazole moiety, oxazole to thiazole change
Q: For B2, which Kd [4] is on record?
A: The Kd was 680 nM.

B3: thiopeptide TL6 (synthetic) (peptide)
chain: SWT[Nle]LFRLQSKLAISCSC
modifications: bridge (positions not given here) via pyridine‑bisazole; reading uncertain; also: macrocycle closed through a pyridine-bisazole moiety, oxazole to thiazole change
Q: For B3, which Kd [4] is on record?
A: Its Kd is 630 nM.

B4: thiopeptide TL17 (synthetic) (peptide)
chain: SWALLIKQIN[Nle]LY[hGln]SCSC
modifications: bridge (positions not given here) via pyridine‑bisazole; reading uncertain; also: macrocycle closed through a pyridine-bisazole moiety, oxazole to thiazole change
Q: For B4, which Kd [4] is on record?
A: The Kd was 360 nM.

B5: thiopeptide TL19 (synthetic) (peptide)
chain: SWIGRV[Nle]IK[Dha]SSCSC
modifications: bridge (positions not given here) via pyridine‑bisazole; not fully specified (residue 11); reading uncertain; also: Ser11 is an oxazole, macrocycle closed through a pyridine-bisazole moiety
Q: Which Kd [4] does the source give for B5 here?
A: Its Kd is 570 nM.
